{
  "source": "patent US8877734B2",
  "about": "“Seleny-methyluracil compounds, radiosensitizer and pharmaceutical composition using them” (Kongju National University Industry-University Cooperation …, priority 2010, dated 2014)",
  "test_system": "Human lung cancer cell line H460",
  "assay": "Cytotoxicity test on cancer cells (water-soluble tetrazolium salt colorimetric assay)",
  "format": "cell-based",
  "conditions": "for IC50: Homo sapiens, NCI-H460, H460 cells, compound alone without radiation, after a lapse of 72 hours, read-out: IC50 value, the concentration where 50% cells are killed; for cytotoxic effect when applied alone: cancer cell line H460, without the combined radiation treatment",
  "experimental": "Human lung cancer cell line H460 was used in the present test. Firstly, the H460 cell line was cultured in RPMI 1640 medium with 100 U/mL of penicillin, […] of streptomycin and 10% FBS, under the condition of 37° C. and 5% CO2 atmosphere. The cultured cells were placed on a 96-well-plate at the initial cell density of about 2×10^3 cells. In about 24 hours, the cells on the 96-well-plate were treated with the compound 1 and the compound 7 at a designated concentration for 48 hours. The relative cell viability was quantitatively determined by a colorimetric assay using a water-soluble tetrazolium salt. Optical density at 450 nm was measured by an automatic micro plate reader. The results were represented in FIGS. 1 and 2 in the drawings attached to the present specification. As shown in the test example 1, FIG. 1 and FIG. 2, the lung cancer cell line (H460) was treated with the compound 1 (MeSe-T), then after a lapse of 72 hours, IC50 value thereof, that is the concentration where 50% cells are killed, were about 100 μM.",
  "data": [
    {"compound": "O=c1[nH]c(=O)n([C@H]2CC(O)[C@@H](CO)O2)cc1C[Se]c1ccccc1", "note": "(stereo partly shown) [compound 7, 5-phenylselenyl-methyl-2′-deoxy uridine]", "values": [
      {"measurement": "IC50", "value": "~500", "unit": "µM"},
      {"measurement": "cytotoxic effect when applied alone", "value": "weak cytotoxic effect"}
    ]},
    {"compound": "C[Se]Cc1cn([C@H]2CC(O)[C@@H](CO)O2)c(=O)[nH]c1=O", "note": "(stereo partly shown) [compound 1, 5-methylselenyl-methyl-2′-deoxy uridine]", "values": [
      {"measurement": "IC50", "value": "~100", "unit": "µM"},
      {"measurement": "cytotoxic effect when applied alone", "value": "weak cytotoxic effect"}
    ]}
  ]
}
